Measured values from US12213970B2, “Pyridinyl sulfonamide derivatives, pharmaceutical compositions and uses thereof” (Boehringer Ingelheim International GmbH, priority 2018, dated 2025).
Counter-ions that a name gives are not always drawn. Like-named read-outs stand apart in the source and are kept apart here.

Columns and labels:
[1] = target: T1, AOC1 (Homo sapiens, UniProt P19801); assay: AOC1 biochemical assay (Amplex Red)
T1 construct: purchased R&D Systems 8297-AO-010
T1 sequence (P19801 20-751): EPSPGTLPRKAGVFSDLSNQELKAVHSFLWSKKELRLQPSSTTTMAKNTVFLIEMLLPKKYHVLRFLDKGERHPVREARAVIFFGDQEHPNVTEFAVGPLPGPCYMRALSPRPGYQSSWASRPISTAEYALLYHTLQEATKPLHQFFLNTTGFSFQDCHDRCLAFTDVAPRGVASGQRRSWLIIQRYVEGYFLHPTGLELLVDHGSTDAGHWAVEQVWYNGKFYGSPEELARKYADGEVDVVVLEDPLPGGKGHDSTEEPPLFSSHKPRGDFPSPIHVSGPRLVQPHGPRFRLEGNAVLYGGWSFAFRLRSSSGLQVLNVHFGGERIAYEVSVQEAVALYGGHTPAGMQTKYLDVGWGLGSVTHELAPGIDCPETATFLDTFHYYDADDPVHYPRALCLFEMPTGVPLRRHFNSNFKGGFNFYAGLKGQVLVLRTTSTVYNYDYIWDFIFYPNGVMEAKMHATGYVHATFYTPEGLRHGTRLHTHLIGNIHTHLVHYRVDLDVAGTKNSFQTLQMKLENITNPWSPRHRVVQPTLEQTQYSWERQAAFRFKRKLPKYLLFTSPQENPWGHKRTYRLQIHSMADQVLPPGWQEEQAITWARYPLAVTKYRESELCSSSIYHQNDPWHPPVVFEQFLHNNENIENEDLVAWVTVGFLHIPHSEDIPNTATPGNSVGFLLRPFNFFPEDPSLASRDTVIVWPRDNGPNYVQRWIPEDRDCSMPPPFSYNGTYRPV
Experimental: The Amplex® Red Assay (available from Thermo Fisher Scientific) provides a sensitive method for the detection of H2O2 generated during enzymatic reactions like the amine oxidation catalyzed by AOC1. The assay reagent is a colorless substrate (N-acetyl-3,7-dihydroxyphenoxazine) that reacts in a 1:1 stoichiometry with hydrogen peroxide (H2O2) to produce the fluorescent dye resorufin (7-hydroxyphenoxazin-3-one, excitation/emission maxima=570/585 nm).
An aliquot of 3 μL of the compound dilution is added to a 384 well plate (Optiplate, PS, flat bottom F, black, PERKIN ELMER, #6007270) in a DMSO concentration of 6.6%.
An AOC1 enzyme aliquot (#8297-AO-010, R&D Systems) is thawed on ice, diluted in reaction buffer and added in a volume of 7 μL to the wells to give a final assay concentration of 1 ng/well. After incubation of inhibitor and enzyme for 30 minutes at 37° C., the enzymatic reaction is started with the addition of 10 μL of Amplex® Red reaction mix (final assay concentration: 100 mM sodiumphosphate, 120 μM Amplex® Red reagent (#A22177 Molecular Probes), 1.5 U/mL Horseradish Peroxidase (#P8375 Sigma-Aldrich), 200 μM putrescine (#P7505 Sigma-Alrdich), 0.05% Pluronic F-127 (#P3000MP Sigma-Aldrich), pH 7.4, 37° C.).
After an incubation for 30 minutes at 37° C. the turnover of the substrate is determined directly (or after the addition of an excess of an amine-oxidase inhibitor) with a fluorescence reader (Ex 540 nm/Em 590 nm) like Envision 2104 Multilabel Reader (PERKIN ELMER).

[2] = target: T2, human AOC3 enzyme (recombinant CHO cells) (Homo sapiens, UniProt Q16853); assay: AOC3 biochemical assay (MAO-Glo), human enzyme
T2 construct: expressed in transfected cells; host or cells: CHO cells
T2 sequence (Q16853 1-763): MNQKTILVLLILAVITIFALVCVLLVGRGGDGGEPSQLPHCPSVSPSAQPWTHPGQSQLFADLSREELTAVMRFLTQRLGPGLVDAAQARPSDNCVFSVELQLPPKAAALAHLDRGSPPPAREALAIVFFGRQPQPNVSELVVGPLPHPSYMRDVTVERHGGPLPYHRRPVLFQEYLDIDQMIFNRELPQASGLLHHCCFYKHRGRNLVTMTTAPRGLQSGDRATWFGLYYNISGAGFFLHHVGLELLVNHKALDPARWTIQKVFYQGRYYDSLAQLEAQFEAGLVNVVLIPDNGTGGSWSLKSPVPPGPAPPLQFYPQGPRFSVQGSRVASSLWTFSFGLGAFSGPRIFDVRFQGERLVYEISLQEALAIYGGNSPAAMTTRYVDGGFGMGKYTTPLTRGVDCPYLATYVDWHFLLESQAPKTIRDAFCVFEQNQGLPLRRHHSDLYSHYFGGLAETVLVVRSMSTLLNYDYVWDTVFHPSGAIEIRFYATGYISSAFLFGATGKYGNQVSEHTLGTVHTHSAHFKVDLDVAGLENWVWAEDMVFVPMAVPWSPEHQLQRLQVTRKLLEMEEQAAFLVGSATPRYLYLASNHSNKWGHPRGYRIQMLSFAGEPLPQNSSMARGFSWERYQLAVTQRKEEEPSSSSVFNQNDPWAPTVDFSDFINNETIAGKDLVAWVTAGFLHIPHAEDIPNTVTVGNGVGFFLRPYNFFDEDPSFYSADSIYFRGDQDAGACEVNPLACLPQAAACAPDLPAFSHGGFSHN
Source text: The MAO-Glo™ Assay (commercially available from PROMEGA, #V1402) provides a sensitive method for the measurement of monoamine oxidase (MAO) activity (Valley, M. P. et al., 2006, Anal. Biochem. 359: 238-246) from a variety of tissues, biofluids or recombinant expressed or purified enzymes. As substrate a derivate of the beetle luciferin ((4S)-4,5-dihydro-2-(6-hydroxybenzothiazolyl)-4-thiazole-carboxylic acid) is used, which is oxidized at a primary amine moiety. After a spontaneous elimination and a catalyzed esterase reaction, the turnover of luciferin by the luciferase is recorded as a signal of AOC3 activity.
An aliquot of 3 μL of the compound dilution is added to a 384 well plate (Optiplate, PS, flat bottom, white, PERKIN ELMER, #6007290) with a final DMSO concentration of 6.6%. Recombinant CHO cells, overexpressing the human (1500 cells/well), mouse (1000 cells/well) or rat (500 cells/well) AOC3 enzyme are diluted in reaction buffer and added in a volume of 15 μL to the wells. After incubation for 20 minutes at 37° C., 2 μL of MAO substrate (dissolved in DMSO at 16 mM, adjusted to assay concentration in reaction buffer to a final assay concentration of 20 μM) is added and further incubated for 60 minutes at 37° C. The turnover of the substrate is determined by the addition of 20 μL of the detection-mix which was generated by the addition of reconstitution buffer with esterase (PROMEGA, #V1402) to the luciferin detection reagent (PROMEGA, #V1402). After an incubation period of 20 minutes, the luminescent signal is measured with Envision 2104 Multilabel Reader (PERKIN ELMER).

SMILES	IC50 ([1]; read-out: AOC1 IC50)	IC50 ([2]; read-out: AOC3 IC50)	other results
COC1CN(S(=O)(=O)c2ccc(OC/C(=C\F)CN)cc2)C1 [Reference compound A, reference compound]	–	–	IC50 ([1]; comparison table, read-out: IC50 AOC1): 1750 nM; IC50 ([2]; comparison table, read-out: IC50 AOC3): 3 nM
CC(=O)NC1CCN(S(=O)(=O)c2ccc(OC/C(=C\F)CN)nc2)C1 (stereo not shown) [Example 12]	3180 nM	15 nM	–
CC1(C(=O)NC2CCOCC2)CCN(S(=O)(=O)c2ccc(OC/C(=C\F)CN)nc2)CC1 [Example 48, 1-[6-((Z)-2-Aminomethyl-3-fluoro-allyloxy)-pyridine-3-sulfonyl]-4-methyl-piperidine-4-carboxylic acid (tetrahydropyran-4-yl)-amide trifluoroacetate]	13000 nM	33 nM	–
CN(C)C(=O)[C@H]1CCN(S(=O)(=O)c2ccc(OC/C(=C\F)CN)nc2)C1 [Example 4]	3420 nM	23 nM	–
CC1(C(=O)NC2CC2)CCN(S(=O)(=O)c2ccc(OC/C(=C\F)CN)nc2)CC1 [Example 56]	11500 nM	21 nM	–
CC(C)(O)CNC(=O)[C@H]1CCN(S(=O)(=O)c2ccc(OC/C(=C\F)CN)nc2)C1 [Example 2]	8140 nM	40 nM	–
NC/C(=C/F)COc1ccc(S(=O)(=O)N2C[C@H]3C[C@@]3(C(=O)N3CCOCC3)C2)cn1 [Example 22]	13700 nM	35 nM	–
CNC(=O)C1CCN(S(=O)(=O)c2ccc(OC/C(=C\F)CN)nc2)CC1 [Example 37, trifluoroacetate]	9880 nM	10 nM	–
NC/C(=C/F)COc1ccc(S(=O)(=O)N2CCC(C(=O)N3CCOCC3)CC2)cn1 [Example 3]	16400 nM	88 nM	–
CC(=O)NCC1CCN(S(=O)(=O)c2ccc(OC/C(=C\F)CN)nc2)CC1 [Example 28]	3740 nM	13 nM	–
NC/C(=C/F)COc1ccc(S(=O)(=O)N2CCC[C@H]2C(N)=O)cn1 [Example 13]	667 nM	43 nM	–
NC/C(=C/F)COc1ccc(S(=O)(=O)N2CC[C@H](O)C2)cn1 [Example 43, (S)-1-[6-(Z)-2-Aminomethyl-3-fluoro-allyloxy]-pyridine-3-sulfonyl]-pyrrolidin-3-ol trifluoroacetate]	–	10 nM	IC50 ([1]; read-out: IC50 AOC1): 964 nM; factor less active on AOC1 than the comparison compound ([1]; versus the Z isomer of example 6 of WO 2018/027892): 14
COCCNC(=O)CC1CCN(S(=O)(=O)c2ccc(OC/C(=C\F)CN)nc2)CC1 [Example 54]	10500 nM	19 nM	–
NC/C(=C/F)COc1ccc(S(=O)(=O)N2CCC(CC(=O)N3CC(O)C3)CC2)cn1 [Example 55]	27100 nM	17 nM	–
NC/C(=C/F)COc1ccc(S(=O)(=O)N2CCC(C(=O)O)CC2)cn1 [Example 46]	> 50000 nM	493 nM	–
CN(C)C(=O)C1CN(S(=O)(=O)c2ccc(OC/C(=C\F)CN)nc2)C1 [Example 25]	1320 nM	13 nM	–

More lines, in order of falling IC50 ([2]; read-out: AOC3 IC50), values ahead:

IC50 ([1]; read-out: AOC1 IC50)	IC50 ([2]; read-out: AOC3 IC50)	SMILES	other results
12500 nM	9 nM	CN(C)C(=O)CC1CCN(S(=O)(=O)c2ccc(OC/C(=C\F)CN)nc2)CC1 [Example 19]	–
911 nM	9 nM	NC/C(=C/F)COc1ccc(S(=O)(=O)N2CC(C3CCN(C(=O)C4CC4)CC3)C2)cn1 [Example 26]	–
5310 nM	8 nM	NC/C(=C/F)COc1ccc(S(=O)(=O)N2CCC(CC(N)=O)CC2)cn1 [Example 50]	–
1370 nM	8 nM	CNC(=O)[C@@]12C[C@@H]1CN(S(=O)(=O)c1ccc(OC/C(=C\F)CN)nc1)C2 [Example 29]	–
15300 nM	7 nM	CN1CCN(C2CCN(S(=O)(=O)c3ccc(OC/C(=C\F)CN)nc3)CC2)C1=O [Example 1, 1-{1-[6-((Z)-2-Aminomethyl-3-fluoro-allyloxy)-pyridine-3-sulfonyl]-piperidine-4-yl}-3-methyl-imidazolidin-2-one trifluoroacetate]	–
909 nM	6 nM	NC/C(=C/F)COc1ccc(S(=O)(=O)N2CC[C@H](C(N)=O)C2)cn1 [Example 39]	–
1380 nM	4 nM	COC(=O)C1(C)CCN(S(=O)(=O)c2ccc(OC/C(=C\F)CN)nc2)CC1 [Example 36]	–
869 nM	4 nM	NC/C(=C/F)COc1ccc(S(=O)(=O)N2CC[C@@H](C(N)=O)C2)cn1 [Example 31]	–
2400 nM	4 nM	COC(=O)C1CCN(S(=O)(=O)c2ccc(OC/C(=C\F)CN)nc2)CC1 [Example 34]	–
1560 nM	4 nM	NC/C(=C/F)COc1ccc(S(=O)(=O)N2CCC(C(N)=O)CC2)cn1 [Example 7]	–
235 nM	3 nM	NC/C(=C/F)COc1ccc(S(=O)(=O)N2CCCCC2)cn1 [Example 38]	–
